Results as given in US20120004307A1, “ORAL TREATMENT OF DIGITAL ISCHEMIC LESIONS” (priority 2010, published 2012).
Like-named read-outs stand apart in the source and are kept apart here.

How the values were obtained:
[1] = for subjects who tolerated the dose: 10 SSc patients
Description: During a phase I PK trial of oral treprostinil in SSc patients, the goal was to quantify changes in perfusion as assessed by laser Doppler imaging (LDI) and to determine whether improvements in perfusion correlated with drug concentration.
10 SSc patients with recent or active DU participated in the study.
Dosing: Oral treprostinil titrated up to 4 mg twice daily (BID) as tolerated over 6-8 weeks. Pharmokinetics (PK) and laser Doppler imaging (LDI) assessments: performed when subjects achieved the 2 mg and 4 mg (or maximally tolerated dose) doses. […] 8 serial measures of digital perfusion and drug concentration were obtained over 12 hours at each of the 2 study visits.
Repeated measures analyses were performed using random effects model. Dependent variables were perfusion and skin temperature. The predictor of interest was log-transformed drug concentration. Covariates with p-values less than 0.15 were kept in the model. All data was used, across time points, visits, and hands.

[2] = DISTOL-1 randomized Phase IIB study of oral treprostinil diethanolamine versus placebo, digital ulcers in systemic sclerosis; format: in vivo, human
Source text: Primary: To assess the effect of oral treprostinil in reducing net ulcer burden compared to placebo in patients with systemic sclerosis (SSc) as measured by the change in net ulcer burden from Baseline to Follow-up between treatment groups at 20 weeks. […] Target enrollment of […] patients to complete 128 subjects. […] Primary analysis: effect of treprostinil versus placebo on change in net ulcer burden at Week 20 evaluated using non-parametric analysis of covariance within the framework of the extended Cochran-Mantel-Haenszel test.

[3] = 4 mg visit (but not the 2 mg visit), adjusted for time points of Doppler assessment
[4] = Subject 6, 4 mg visit, baseline at drug trough prior to administration of 4 mg dose
[5] = Subject 6, 4 mg visit, twelve hours after dosing

CCCCC[C@H](O)CC[C@@H]1[C@H]2Cc3cccc(OCC(=O)O)c3C[C@H]2C[C@H]1O.OCCNCCO [treprostinil diethanolamine, Treprostinil diethanolamine]
subjects who tolerated the dose ([1]; 2 mg BID by the first PK visit): Nine | subjects who tolerated the dose ([1]; 4 mg BID by the 2nd PK visit): 6 subjects | association of digital skin temperature with log-transformed plasma concentration [1, 3]: positively associated | association of perfusion with log-transformed plasma concentration [1, 3]: positively associated | perfusion versus drug exposure ([1]; AUCs, FIG. 4): increase in perfusion was observed with an increase in drug exposure | plasma concentration versus dose ([1]; AUCs, FIG. 4): increase in plasma concentration was observed with an increase in dose | mean perfusion (laser Doppler imaging) [1, 4]: 89.3 units | skin temperature [1, 4]: 25 °C | perfusion (laser Doppler imaging) [1, 5]: 298.3 units | skin temperature [1, 5]: 32 °C | adverse effects ([1]; titrated up to 4 mg BID over 6-8 weeks): transient and typical of prostacyclin therapy | change in net ulcer burden at Week 20 ([2]; ACA negative subset of patients): statistically significant changes were observed | Time to Cardinal Ulcer Healing (mean days) ([2]; Active n = 71): 76.3 ± 35 days | Time to all Ulcers Healed (mean days) ([2]; Active n = 71): 90.2 ± 35.6 days | Mean # of new ulcers ([2]; Active n = 71, listed under new ulcers formed after Week 5): 0.9 | All Ulcers Healed ([2]; Active n = 71, number (%)): 35 (49%) | Any new ulcers formed after Week 5? At least one new ([2]; Active n = 71, number (%)): 27 (38%) | Any new ulcers formed after Week 5? No new ([2]; Active n = 71, number (%)): 30 (42%) | Any new ulcers formed during study? At least one new ([2]; Active n = 71, number (%)): 39 (55%) | Any new ulcers formed during study? No new ([2]; Active n = 71, number (%)): 24 (34%) | Cardinal Ulcer Healed ([2]; Active n = 71, number (%)): 44 (62%) | Discontinuations: Adverse Event ([2]; Active n = 72, number (%) of subjects): 9 (13%) | Mean Change in Net Ulcer Burden Week 20 P value ([2]; Subgroup (ACA) Negative (n = 40/34)): 0.01 | Mean Change in Net Ulcer Burden Week 20 P value ([2]; Subgroup (ACA) Positive (n = 19/29)): 0.97 | Mean Change in Net Ulcer Burden Week 20 P value ([2]; Subgroup (ATA) Negative (n = 32/38)): 0.58 | Mean Change in Net Ulcer Burden Week 20 P value ([2]; Subgroup (ATA) Positive (n = 27/22)): 0.06 | Mean Change in Net Ulcer Burden Week 20 P value ([2]; Subgroup >2 active ulcers at Baseline (n = 10/10)): 0.51 | Mean Change in Net Ulcer Burden Week 20 P value ([2]; Subgroup ACA Negative/ATA Positive (n = 20/15)): 0.013 | Mean Change in Net Ulcer Burden Week 20 P value ([2]; Subgroup Diffuse SSc (n = 31/21)): 0.32 | Mean Change in Net Ulcer Burden Week 20 P value ([2]; Subgroup Limited SSc (n = 42/55 Active/Placebo)): 0.42 | Mean Change in Net Ulcer Burden Week 20 P value ([2]; Subgroup No PDEI background (n = 59/63)): 0.21 | Mean Change in Net Ulcer Burden Week 20 P value ([2]; Subgroup PDEI background (n = 12/13)): 0.90 | Mean Change in Net Ulcer Burden Week 20 P value ([2]; Subgroup ≦2 active ulcers at Baseline (n = 61/66)): 0.10 | Patient Global and Digital Ulcer pain VAS ([2]; Week 20): Improvement not reaching statistical significance | symptomatic relief of pain and functional deficits associated with ischemic vascular disease ([2]; patients with scleroderma and digital ulcers, orally administered): provided symptomatic relief of pain | change in net ulcer burden at Week 20, primary analysis ([2]; total population, versus placebo): did not achieve statistical significance
